Source: patent US12012396B2, “HDAC inhibitor solid state forms” (Viracta Subsidiary, Inc., priority 2020, dated 2024)
“Also recorded” adds a separate entry of the source.

Tests used:
Type in all cases: physicochemical
[1] = Thermodynamic aqueous solubility; details: water, after 24 hours equilibration
Procedure: Aqueous solubility was determined by suspending sufficient compound in 0.5 ml deionized water to give a maximum final concentration of 40 mg/mi of the parent free-form of the compound. The suspension was equilibrated at 25° C., on a Heidolph plate shaker set to 750 rpm for 24 hours. After equilibration, the appearance was noted and the pH of the saturated solution was measured. Samples forming suspensions were centrifuged for 4 min at 13,500 rpm. Samples were then filtered through a glass fiber C filter (particle retention 1.2 μm), before dilution with H2O as appropriate.
Quantitation was by HPLC (see Table 2 for parameters) with reference to a standard solution of approximately 0.15 mg/ml in DMSO. Different volumes of the standard, diluted and undiluted sample solutions were injected. The solubility was calculated using the peak areas determined by integration of the peak found at the same retention time as the principal peak in the standard injection. Analysis was performed on an AgilentHPl 100/Infinity II 1260 series system equipped with a diode array detector and using OpenLAB software.

[2] = Static storage stability at elevated temperature/humidity (XRPD, HPLC purity)
Procedure: XRPD diffractograms were collected on a Bruker D8 diffractometer using Cu Kα, radiation (40 kV, 40 mA) and a 0-20 goniometer fitted with a Ge monochromator. The incident beam passes through a 2.0 mm divergence slit followed by a 0.2 mm anti-scatter slit and knife edge. The diffracted beam passes through an 8.0 mm receiving slit with 2.5° Soller slits followed by the Lynxeye Detector. The software used for data collection and analysis was Diffrac Plus XRD Commander and Diffrac Plus EVA respectively.
XRPD diffractograms were collected on a PANalytical Empyrean diffractometer using Cu Kα, radiation (45 kV, 40 mA) in transmission geometry. A 0.5° slit, 4 mm mask and 0.04 rad Soller slits with a focusing mirror were used on the incident beam. A PIXcel3D detector, placed on the diffracted beam, was fitted with a receiving slit and 0.04 rad Soller slits. The software used for data collection was X'Pert Data Collector using X'Pert Operator Interface. The data were analyzed and presented using Diffrac Plus EVA or HighScore Plus.
Purity analysis was performed on an AgilentHP1100/Infinity 111260 series system equipped with a diode array detector and using OpenLAB software.

[3] = Gravimetric Vapour Sorption (GVS)
Procedure: Sorption isotherms were obtained using a SMS DVS Intrinsic moisture sorption analyser, controlled by DVS Intrinsic Control software. The sample temperature was maintained at 25° C. by the instrument controls. The humidity was controlled by mixing streams of dry and wet nitrogen, with a total flow rate of 200 ml/min. The relative humidity was measured by a calibrated Rotronic probe (dynamic range of 1.0-100% RH), located near the sample. The weight change, (mass relaxation) of the sample as a function of % RH was constantly monitored by a microbalance (accuracy ±0.005 mg). Typically, 20-30 mg of sample was placed in a tared mesh stainless steel basket under ambient conditions. The sample was loaded and unloaded at 40% RH and 25° C. (typical room conditions). A moisture sorption isotherm was performed as outlined below (2 scans per complete cycle). The standard isotherm was performed at 25° C. at 10% RH intervals over a 0-90% RH range. Typically, a double cycle (4 scans) was carried out. Data analysis was carried out within Microsoft Excel using the DVS Analysis Suite. [table]

[4] = physchem; details: thermodynamic from solid
Description: There was insufficient residue to characterize these further.

[5] = Competitive slurries of anhydrous and hydrated forms in different water activity
Procedure: Competitive slurries of the anhydrous and hydrated forms in different water activity at 50° C. and 5° C. were used to determine the thermodynamic stability relationships.

[6] = 7 days / 1 week at 25° C./97% RH
[7] = 7 days / 1 week at 40° C./75% RH

Q: With O=C(NO)c1cnc(N2C[C@@H]3[C@H](C2)[C@H]3NCc2ccc3cc(F)ccc3n2)nc1 [Mesylate Form 1, N-hydroxy 2-{6-[(6-fluoro-quinolin-2-ylmethyl)-amino]-3-aza-bicyclo[3.1.0]hex-3-yl}pyrimidine-5-carboxamide] as the molecule, how does the “pH of saturated solution” value [1] read?
A: (pH = 3.2)

Q: And the “Purity after static storage” value ([2]; 14 weeks at 25° C./97% RH)?
A: 93.5%

Q: And the “Solid form by XRPD after static storage” value ([2]; 14 weeks at 25° C./97% RH)?
A: Mesylate Form 1

Q: What about the “Purity after static storage” value ([2]; 14 weeks at 40° C./75% RH) of the same molecule?
A: Form 2 (94.7% purity)

Q: And the “HPLC purity after static storage” value [2, 6]?
A: no significant drop in purity

Q: And the “Solid form by XRPD after static storage” value [2, 6]?
A: unchanged; also recorded: No change, Mesylate Form 1

Q: What about the “HPLC purity after static storage” value [2, 7] of the same molecule?
A: no significant drop in purity

Q: What about the “Solid form by XRPD after static storage” value [2, 7] of the same molecule?
A: unchanged; also recorded: No change, Mesylate Form 1

Q: What about the “Hygroscopicity by GVS” value ([3]; 25° C.) of the same molecule?
A: RH: Slightly hygroscopic.

Q: What about the “XRPD post-GVS” value ([3]; residue after GVS) of the same molecule?
A: no change; also recorded: XRPD remains unchanged

Q: What about the solubility thermodynamic ([4]; fassgf or other biorelevant, Thermodynamic solubility in FaSSGF) of the same molecule?
A: 21000 µg/mL

Q: And the solubility thermodynamic ([4]; fassif, Thermodynamic solubility in FaSSIF)?
A: 1900 µg/mL

Q: And the solubility thermodynamic ([4]; fessif, Thermodynamic solubility in FeSSIF)?
A: 340 µg/mL

Q: What about the “Water activity up to which the form was the most stable” value ([5]; competitive slurries at 5° C.) of the same molecule?
A: ≥ 0.3 aw

Q: What about the “Water activity up to which the form was the most stable” value ([5]; competitive slurries at 50° C.) of the same molecule?
A: 0.6 aw
